Here are results for three compounds from paper PMC8391104, “Molecular mechanism of Mad1 kinetochore targeting by phosphorylated Bub1” (EMBO Reports, 2021).

Where two headings read alike, the source gives them in different places. Where a SMILES comes first, the peptide text is derived from it. [ ]: non-standard residue; d: D form. pT = C[C@@H](OP(=O)(O)O)[C@H](N)C(=O)O

In one data set the test system is Mad1^CTD. Particulars: ref Ji et al, 2017b, Zhang et al, cited from earlier work. The source says:
Formation of the Bub1‐Mad1 complex at kinetochores is dependent on phosphorylation of Bub1, a targeting mechanism conserved from yeast to humans (Heinrich et al, [2014]; London & Biggins, [2014a]; Silió et al, [2015]). In S. cerevisiae, phosphorylation of Bub1 at Thr453 and Thr455 by Mps1 promotes an interaction with Mad1^CTD, with pThr455 alone being sufficient for this interaction (London & Biggins, [2014a]; Ji et al, [2017b]). […] This is explained by our structure because a bulky phosphate at Thr464 would clash with the Bub1^CD1 binding interface of Mad1. Therefore, phosphorylation at Thr464 could provide a means to negatively regulate the Bub1‐Mad1 interaction in response to checkpoint signals ... || (+ 1 further places)

A further data set is described as follows: Peptide solubility. In kind it is physicochemical. Particulars: 20 mM Hepes, pH 7.5, 100 mM NaCl, 1 mM TCEP, without DMSO. As for the experimental part: Our ITC and sedimentation equilibrium experiments to measure the stoichiometry of the Mad1^CTD‐Bub1^CD1 interaction were performed with concentrations of Mad1 at 100 µM or lower, and titrating Bub1 until a twofold‐fourfold molar excess was obtained. However, our ^31P NMR experiments were conducted with around 0.25 to 0.5 mM of each, and still only one binding event was detected. […] DMSO interfered with ITC enthalpy changes and the NMR signal from DMSO obscured the protein peaks. In contrast, our Mad1^CTD‐Bub1^CD1 crystal structure was obtained through co‐crystallization of Mad1^CTD at a final concentration of 0.35 mM and Bub1^CD1 at 2.5 mM in 5% DMSO. The use of millimolar concentrations of peptide, and the presence of DMSO and isopropanol, required for Mad1^CTD‐Bub1^CD1 crystallization, may explain the association of a second peptide in the crystallized complex. […]
which are affected are already mapped out in Fig 5B, and this can be tracked across Bub1CD1 […]
We thank the reviewer for their positive and constructive comments.
1) On page 2, the first line of the third paragraph, Msp1 should be Mps1.
Response: Thank you, we have corrected this error.
2) Please provide a figure to show the omit map (2Fo−Fc map) for the BUB1 CD1 peptide.
Response: We have created a 2Fo-Fc omit map and included it in Fig EV2D and updated the figure legend accordingly. […]
2) p. 5, near bottom. The authors state that the singly phosphorylated Bub1 peptide (on Thr-461) is less soluble than the double phosphorylated peptide (also phosphorylated on Ser-459), which may explain previous reports that P-Ser-459 contributes to binding Mad1-CTD. It would be helpful if the authors could quantify this reduced solubility.
Response: We realise that our comment on the reduced solubility of the singly phosphorylated pT461 peptide is likely confusing, so we have removed this comment.
In terms of quantifying the reduced solubility, we observed an approximately 2-fold reduction of the solubility of the singly phosphorylated peptide. […]

Data set [1] addresses T1, human Mad1^CTD (WT) homodimer (Homo sapiens, UniProt Q9Y6D9).
T1 construct: human Mad1^CTD homodimer (residues 597–718); double Strep His6-tag with TEV site (N, cleaved yes); made in house; host or cells: E. coli Rosetta 2 (DE3)
T1 sequence (Q9Y6D9 597-718): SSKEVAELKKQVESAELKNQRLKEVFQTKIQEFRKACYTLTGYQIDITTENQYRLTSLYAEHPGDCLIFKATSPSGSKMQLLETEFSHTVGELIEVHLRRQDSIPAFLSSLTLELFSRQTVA
Kind of data set: ITC of Bub1^CD1 peptides binding to wild-type Mad1^CTD. Particulars: N‐terminal tryptophan peptide. From the text:
The coding region of Mad1^597–719 was cloned by USER® (NEB) into a modified pRSFDuet‐1 vector (71341‐3, Sigma‐Aldrich) with an N‐terminal double Strep His6‐tag, followed by a tobacco etch virus (TEV) protease cleavage site (Demple & Linn, [1982]; Bitinaite et al, [1992]). Mad1 mutants were generated using the QuikChange™ Lightning Site‐Directed Mutagenesis Kit (Agilent), developed by Stratagene Inc. (La Jolla, CA) (Nøhr & Kristiansen, [2003]). Mad1 constructs were transformed into Rosetta™ 2 (DE3) Singles™ Competent Cells (71400, Novagen) for expression. Expression was induced with 0.5 mM IPTG and grown overnight at 18°C. Cells were lysed in 25 mM HEPES pH 8.1, 250 mM NaCl, 2 mM DTT, 5% glycerol, 2 mM EDTA supplemented with lysozyme, and Complete™ EDTA‐free protease inhibitors (Roche). Proteins were purified over a Strep‐Tactin Superflow Plus column (QIAGEN) and cleaved with TEV protease overnight at 4°C. The cleaved Mad1^CTD was then diluted to 50 mM NaCl, purified over an anion exchange (Resource Q, GE Healthcare) column, followed by size exclusion chromatography using a Superdex 75 Increase column (GE Healthcare). Mad1^CTD was concentrated to 35 mg/ml in a buffer of 20 mM HEPES pH 7.5, 100 mM NaCl and 1 mM TCEP.
Bub1^CD1 peptides were ordered from Designer Bioscience UK, at 95% purity. The full peptide sequence used in this study was (W)KVQP{pS}P{pT}VHTKEALGFIMNMFQAPTS. (W) = peptide with an additional N‐terminal tryptophan was used to confirm peptide concentration in stoichiometry studies.
Isothermal titration calorimetry (ITC) was performed using an Auto‐iTC200 instrument (Malvern Instruments, Malvern, UK) at 20°C. Mad1^CTD and Bub1^CD1 peptide mutants were dialysed into 20 mM HEPES pH 7.5, 100 mM NaCl, 1 mM TCEP. For each titration between 30–100 µM of Mad1 was pipetted into the calorimeter cell. The Bub1^CD1 peptides at 0.3–1.5 mM were titrated into the cell consisting of one 0.5 µl injection followed by 19 injections of 2 µl each. The changes in the heat released were integrated over the entire titration and fitted to a single‐site binding model using the MicroCal PEAQ‐ITC Analysis Software 1.0.0.1258 (Malvern Instruments). Titrations were performed in triplicate. Calculations for stoichiometry were based on the molar concentrations of dimeric Mad1^CTD.

Another data set relates to Mad1CTD. Kind of data set: Mad1-Cdc20 interaction. It counts as binding. The source says:
Response: Thank you for pointing out this paper. We have now mentioned this observation in the text: bottom of page 10.
2-1) Have the authors analyzed if Mad1 can bind directly to Cdc20 and is this influenced by Bub1 CD1 as proposed in Ji et al 2017? This would have important implications for understanding SAC signaling also in light of the two recent Science papers on this topic.
Response: We have not carefully analysed the Mad1-Cdc20 interaction. We have replicated […]
blotting) to Mad1CTD (data not shown).
2-2) The authors are focused on the model that Bub1 positions Cdc20 close to Mad1 but this model is not consistently supported by the literature (see for example: Di Fiore Dev Cell 2016 where a Cdc20 mutant unable to bind ABBA motifs still loads Mad2 and Zhang et al 2019, PMID: 30782962 where Bub1 without an ABBA motif still supports a robust […]
Response: Thank you for pointing this out. We agree that we predominately focused on the model that the Bub1 ABBA/KEN motifs position Cdc20 close to Mad1, and that we should have stated more clearly that this model is still debated.
Two changes to the text were made:
1) In the Introduction (page 2) where we had previously already discussed how this model is debated, we added the (Zhang et al, 2019) reference. […]
4) In figure 5A could the authors indicates the peaks they want the readers to focus on that are also discussed in the text. […]

Regarding `CC[C@H](C)[C@H](NC(=O)[C@H](Cc1ccccc1)NC(=O)CNC(=O)[C@H](CC(C)C)NC(=O)[C@H](C)NC(=O)[C@H](CCC(=O)O)NC(=O)[C@H](CCCCN)NC(=O)[C@@H](NC(=O)[C@H](Cc1c[nH]cn1)NC(=O)[C@@H](NC(=O)[C@@H](NC(=O)[C@@H]1CCCN1C(=O)[C@H](CO)NC(=O)[C@@H]1CCCN1C(=O)[C@H](CCC(N)=O)NC(=O)[C@@H](NC(=O)[C@@H](N)CCCCN)C(C)C)[C@@H](C)OP(=O)(O)O)C(C)C)[C@@H](C)O)C(=O)N[C@@H](CCSC)C(=O)N[C@@H](CC(N)=O)C(=O)N[C@@H](CCSC)C(=O)N[C@@H](Cc1ccccc1)C(=O)N[C@@H](CCC(N)=O)C(=O)N[C@@H](C)C(=O)N1CCC[C@H]1C(=O)N[C@H](C(=O)N[C@@H](CO)C(=O)O)[C@@H](C)O` [SpT* CD1] (H-KVQPSP[pT]VHTKEALGFIMNMFQAPTS-OH; N-terminus and C-terminus assumed), the “Mad1 binding reported previously, in words” value in the data set with Mad1^CTD (listed as pThr461) is given as “sufficient to promote a strong Bub1‐Mad1 interaction”. Moreover, in the data set on Mad1^CTD (listed as singly phosphorylated pThr461 peptide), the “Mad1 binding reported previously, in words” value is recorded as “significant reduction in binding”. Moreover, in the data set “Peptide solubility”, the “reduction of solubility versus doubly phosphorylated peptide” value is “approximately 2 fold” and the solubility result is “about 0.7 mM”.
In the case of “(W)KVQP{pS}P{pT}VHTKEALGFIMNMFQAPTS [peptide with an additional N‐terminal tryptophan was used to confirm peptide concentration in stoichiometry studies]”, in data set [1], the “KD and stoichiometry compared with peptide lacking N-terminal Trp” value is “The same KD and stoichiometry”.
Turning to “phosphorylated Bub1-Bub3: phosphorylated Bub1-Bub3 complex”, the “effect on the Mad1-Cdc20 interaction, in words” value in the data set with Mad1CTD is reported as “does not detectably enhance the Mad1-Cdc20 interaction”.
